What was measured:
Format in all cases: physicochemical
[1] = Tableting (pressure compaction) without binder in Sintech press; conditions: for compaction into tablets without binder (state of tablets released from the die): without any binder
Description: The commerically available 1,3-dihalo-5,5-dimethylhydantoins referred to in Example 1 were subjected to tableting operations. Five-gram samples of 1,3-dibromo-5,5-dinethylhydantoin and four-gram samples of DCDMH and BCDMH were compacted without binder in a Sintech® press (MTS Systems Corporation, Edenprairie, Minn.) equipped with a punch and die fabricated from Hastelloy® C alloy. Before manually filling the die, the interior surfaces of the die were lightly dusted with micronized polypropylene wax (MICROPRO 400 wax; Micro Powders, Incorporated, Tarrytown, N.Y.). The pressure applied was 5000 psi with no dwell time, i.e., the pressure was terminated automatically immediately upon reaching 5000 psi. The resultant tablets after removal from the die were aged for 6 days at room temperature. Thereupon the tablets were subjected to crush strength testing utilizing a Sintech® 1/S compression apparatus (MTS Systems Corporation, Edenprairie, Minnesota) equipped with Testworks software, which software is installed in the 1/S compression apparatus as supplied by MTS Systems Corporation. The apparatus includes a horizontal circular-shaped load cell interfaced with a computer, a digital micrometer also interfaced with the computer, and a vertical screw-driven piston that is disposed above the load cell and adapted to apply a downward force perpendicular to the load cell. The procedure for measuring crush strength involves measuring the thickness of the tablet with the micrometer to provide a digitized input to the computer. Next the tablet is placed on its edge on the load cell with the piston in contact with the upper edge of the tablet. Then the apparatus is activated whereby the piston commences applying a progressively increasing downward diametral force to the tablet. At the same time, the load cell continuously measures the downward force being applied to the tablet, and the input of such measurements is transmitted to the computer. […]

[2] = Particle size determination with Coulter LS Particle Size Analyzer; conditions: for Particle Size 10% is greater than / Particle Size 25% is greater than / Particle Size 50% is greater than / Particle Size 75% is greater than / Particle Size 90% is greater than / Particle Size Average: commercially available sample
Method: All particle size determinations referred to in the following Examples were determined by use of a Coulter® LS Particle Size Analyzer. The analyzer was equipped with an LS 230 small volume module and a Fraunhofer PIDS (Polarization Intensity Differential Scattering) detector switched to the “On” position. The determinations were performed at room temperature with a run time of approximately 1 minute per sample. Prior to conducting the particle size determination, and whenever the sample appeared to contain particles adhering to each other, the sample was subjected for 15±1 seconds to sonication using a Sonicor Model SC-100T apparatus to ensure that the particle size measurements were on individual particles of the product, rather than temporarily agglomerated particles.
Samples of commercially-available N,N′-dihalo-5,5-dimethylhydantoins were obtained and subjected to standard test procedures inorderto determine their average particle size using the Coulter® LS Particle Size Analyzer. Table 1 summarizes the results of these average particle size determinations, and also sets forth the data obtained in the same way on arepresentative sample of the 1,3-dibromo-5,5-dimethylhydantoin product of application Ser. No. 09/484,687. Table 2 summarizes the particle size distribution data on the commercially-available 1,3-dihalo-5,5-dimethylhydantoins. In Table 2 the following abbreviations are used: DCDMH is 1,3-dichloro-5,5-dimethylhydantoin; BCDMH is N,N′-bromochloro-5,5-dimethylhydantoin; and DBDMH is 1,3-dibromo-5,5-dimethylhydantoin.

[3] = Crush strength testing of tablets (Sintech 1/S compression apparatus); conditions: binder-free tablets compacted at 5000 psi, aged 6 days at room temperature; average of three tests
Description: The commerically available 1,3-dihalo-5,5-dimethylhydantoins referred to in Example 1 were subjected to tableting operations. Five-gram samples of 1,3-dibromo-5,5-dinethylhydantoin and four-gram samples of DCDMH and BCDMH were compacted without binder in a Sintech® press (MTS Systems Corporation, Edenprairie, Minn.) equipped with a punch and die fabricated from Hastelloy® C alloy. Before manually filling the die, the interior surfaces of the die were lightly dusted with micronized polypropylene wax (MICROPRO 400 wax; Micro Powders, Incorporated, Tarrytown, N.Y.). The pressure applied was 5000 psi with no dwell time, i.e., the pressure was terminated automatically immediately upon reaching 5000 psi. The resultant tablets after removal from the die were aged for 6 days at room temperature. Thereupon the tablets were subjected to crush strength testing utilizing a Sintech® 1/S compression apparatus (MTS Systems Corporation, Edenprairie, Minnesota) equipped with Testworks software, which software is installed in the 1/S compression apparatus as supplied by MTS Systems Corporation. […]
As used herein, including the claims, values given for crush strength are as measured using the apparatus and procedure as described in Example 2 above. […]

[4] = material compacted on small scale in manually filled dies

Row | Structure (SMILES) | Compaction ([1]; without binder, 5000 psi, no dwell time, die dusted with micronized polypropylene wax, listed as 1,3-dibromo-5,5-dimethyhydantoin) | Average Particle Size ([2]; Source: Albemarle Corporation) | Average Particle Size ([2]; Source: Aldrich Chemical Co.) | Average Particle Size ([2]; Source: Great Lakes Chemical Corporation) | Average Particle Size ([2]; Source: the product of Application No. 09/484,687) | Particle Size 10% is greater than [2] | Particle Size 25% is greater than [2] | Particle Size 50% is greater than [2] | Particle Size 75% is greater than [2] | Particle Size 90% is greater than [2] | Particle Size Average [2] | compaction into tablets without binder (state of tablets released from the die) [1] | Crush strength [3] | Average Particle Size [2, 4]
1 | CC1(C)C(=O)N(Br)C(=O)N1Br [1,3-dibromo-5,5-dimethylhydantoin] | could not be tableted | 64.5 microns | 162.1 microns | 45.2 microns | >500 microns | – | – | – | – | – | – | – | – | –
2 | CC1(C)C(=O)N(Br)C(=O)N1Br [DBDMH - Great Lakes, 1,3-dibromo-5,5-dimethylhydantoin] | – | – | – | – | – | 78.76 μ | 49.76 μ | 34.68 μ | 23.25 μ | 13.90 μ | 45.23 μ | – | – | –
3 | CC1(C)C(=O)N(Br)C(=O)N1Br [DBDMH - Aldrich, 1,3-dibromo-5,5-dimethylhydantoin] | – | – | – | – | – | 359.2 μ | 177.6 μ | 86.03 μ | 47.37 μ | 27.67 μ | 162.1 μ | – | – | –
4 | CC1(C)C(=O)N(Cl)C(=O)N1Br [BCDMH - Aldrich, N,N′-bromochloro-5,5-dimethylhydantoin] | – | – | 323.8 microns | – | – | 877.9 μ | 409.9 μ | 173.9 μ | 65.39 μ | 29.35 μ | 323.8 μ | intact and exhibited no visual surface imperfections | 83.9 lb/in | about 324 microns
5 | CC1(C)C(=O)N(Cl)C(=O)N1Cl [DCDMH - Aldrich, 1,3-dichloro-5,5-dimethylhydantoin] | – | – | 108.1 microns | – | – | 195.3 μ | 134.4 μ | 80.07 μ | 45.99 μ | 27.19 μ | 108.1 μ | intact and exhibited no visual surface imperfections | 183.6 lb/in | about 108 microns
6 | CC1(C)C(=O)N(Br)C(=O)N1Br [DBDMH - Albemarle, 1,3-dibromo-5,5-dimethylhydantoin] | – | – | – | – | – | 162.7 μ | 90.12 μ | 39.21 μ | 26.85 μ | 17.91 μ | 64.59 μ | – | – | –

From patent US6495698B1, “Binder-free compacted forms of 1,3-dihalo-5,5-dimethylhydantoins” (Albemarle Corporation, priority 2000, dated 2002)
